Assay results reported in publication PMC3664642, “A Peptide against Soluble Guanylyl Cyclase α1: A New Approach to Treating Prostate Cancer” (PLoS ONE, 2013).
Entries after “also recorded” stand apart in the source; their conditions may differ. Where no end group is shown, it is not given here.

Tests used:
[1] = system: LNCaP cells; experiment: Proliferation of LNCaP cells without or with R1881 (MTT); format: cell-based; conditions: 2% serum without or with 1 nM R1881; 50 µM peptide; day 6; Fig. 3A; averages of three independent experiments; P<0.03 vs Vehicle
Experimental: (§1) For proliferation, cells were grown in medium containing 2% FBS extracted with dextran-coated charcoal (DCC). 48 hours later, ethanol or 1 nM R1881 was added to the cells followed by peptide treatment. The MTT assay (Sigma) was used as before to determine cell number. For apoptosis, 5000 cells were seeded in 96-well plates and treated with Vehicle (DMSO), Peptide A-8R (25 µM), Etoposide (50 µM) (Sigma) at different time points. The Caspase (3/7) activity was measured using Apo-ONE Homogeneous Caspase-3/7 assay kit (Promega). PARP cleavage was also used to measure apoptosis, and is described below.
Vehicle or different concentrations of Peptide A-8R or C-8R, as shown, was added to (A) hormone-dependent LNCaP cells grown in 2% serum without or with 1 nM R1881, (C) castration-resistant C81 or CWR-22Rv1 cells, or (E) sGCα1-deficient PC-3 or Cos cells. Cell number was measured after various days of incubation. Data points represent averages of three independent experiments plus standard deviations. Asterisks indicate statistical significance (P<0.03) of Peptide A activity, relative to Vehicle. Western blotting was used to monitor expression of endogenous sGCα1 in (B) C81 and CWR-22Rv1 cells, treated without or with 1 nM R1881, or (E) PC-3 and Cos cells, as compared to LNCaP cells. Note that β-actin was used to control for protein loading.

[2] = system: Cos cells; experiment: Proliferation/cytotoxicity, sGCα1-deficient Cos cells (MTT); format: cell-based, African green monkey; conditions: different concentrations, Fig. 3E
Experimental: LNCaP, C81, PC-3 and Cos cells were grown as previously described. CWR-22Rv1 cells were cultured in RMPI-1640 medium with 10% FBS and 50 µg/ml Gentamicin (Gibco). Control siRNA, sGCα1 siRNA and AKT siRNA (Dharmacon) at 50 nM final concentration was transfected into cells using Lipofectamine siMAX (Invitrogen).
as §1
Vehicle or different concentrations of Peptide A-8R or C-8R, as shown, was added to (A) hormone-dependent LNCaP cells grown in 2% serum without or with 1 nM R1881, (C) castration-resistant C81 or CWR-22Rv1 cells, or (E) sGCα1-deficient PC-3 or Cos cells. Cell number was measured after various days of incubation. Data points represent averages of three independent experiments plus standard deviations. […]

[3] = system: C81 cells; experiment: NAC rescue of proliferation of Peptide A-8R-treated cells (MTT); format: cell-based; conditions: 50 µM vs 10 and 25 µM
Experimental: as §1
Intracellular ROS levels were evaluated using the fluorescent probe 5-(and-6)-chloromethyl-2′,7′-dichlorodihydrofluorescein diacetate (CM-H2DCFDA) (Invitrogen). After treatments with Peptide A-8R, C81 cells were loaded with 20 µM CM-H2DCFDA and incubated at 37°C for 30 min in the dark. Cells were then washed with PBS and fluorescence was measured at the excitation and emission wavelengths of 490 and 535 nm, respectively, using a multi-well fluorescence plate reader. For NAC (N-acetyl cysteine) (Sigma) rescue experiment, cells were pretreated with 1 or 5 mM NAC for 2 hours before adding Peptide A-8R.
Figure 4 Peptide A-8R kills prostate cancer cells by mediating ROS generation. (A) C81 cells were treated with Vehicle or different µMolar concentrations of Peptide A-8R and without or with 0–5 mM NAC and monitored for ROS generation after 0–30 min as measured by fluorescence intensity (FI). Bar graphs represent averages of three independent experiments plus standard deviations. Note that asterisks on bar graphs found with NAC are compared to equivalent data without NAC. (B) C81 cells were treated with Vehicle or different concentrations of Peptide A-8R, as shown, and 0–5 mM NAC, as shown, and monitored for cell number after 0–6 days of incubation as measured by MTT assay. Data points represent averages of three independent experiments plus standard deviations. Asterisks indicate statistical significance (P<0.04). (C) C81 cells were treated with Vehicle or different concentrations of Peptide A-8R, as shown, and with or without 5 mM NAC, as shown, and monitored DNA damage after 1 hr incubation as measured by Comet assay.

[4] = system: Caspase 3/7 activity in Cos cells; experiment: Caspase 3/7 assay, Cos cells; format: cell-based, African green monkey; conditions: 10 µM; 0–24 hrs; Fig. 5C
Experimental: as §1
Figure 5 Peptide A-8R induces apoptosis of prostate cancer cells. (A) LNCaP, (B) PC-3, or (C) Cos cells were treated with Vehicle, Peptide A-8R (10 µM), or Etoposide (20 µM) for 0–24 hrs and subjected to a Caspase assay to measure apoptosis. Bar graphs represent averages of three independent experiments plus standard deviations. All activities are relative to the first condition, and this activity was set to 1. Asterisks indicate statistical significance (P<0.005). (D) LNCaP cells were treated with Vehicle, Peptide C-8R, Peptide A-8R, or Etoposide (each drug at 50 µM) for 8 hrs and monitored for apoptosis by measuring PARP cleavage using Western blotting. Note that β-actin was used to control for protein loading.

[5] = system: p53; experiment: p53 activity and dependence; format: cell-based; conditions: prostate cancer cells; data not shown
[6] = system: C81 cells; experiment: DAPI DNA staining, C81 cells; format: cell-based; conditions: 50 µM Peptide A-8R, 1 hr, with or without 5 mM NAC, Fig. S6
Experimental: C81 cells were first treated with or without 5 mM NAC for 2 hrs and then Vehicle or different concentrations of Peptide A-8R, as shown, for 1 hr and stained with DAPI. Phase contrast images are shown. (TIF) Click here for additional data file.

[7] = system: LNCaP cells; experiment: AKT over-expression (adenovirus) rescue of Peptide A-8R-treated cells; format: cell-based; conditions: 10- 50 µM Peptide A-8R; 10% serum; 0–6 days; Fig. S4D
[8] = system: prostate cancer cells; experiment: Cytotoxicity against prostate cancer cells (summary); format: cell-based; conditions: hormone-dependent and hormone-refractory prostate cancer cells
Experimental: as §1

Ac-TFCKAFPFHIIRRRRRRRR [Peptide A-8R] was tested, and the “cytotoxic activity with or without androgen, LNCaP” value [1] was “same potent cytotoxic activity with or without androgen, causing all cells to perish by day 6 when treated with 50 µM peptide”, the “effect on Cos cells” value [2] was “little to no effect” and the “cytotoxicity at 50 µM relative to lower concentrations” value [3] was “strongest cytotoxic activity”. For the same substance, the “induction of apoptosis, Cos” value [4] was “failed to induce apoptosis”, the “effect on p53 activity and p53 dependence of apoptosis” value [5] was “does not disrupt p53 activity nor depend on endogenous p53 for inducing apoptosis” and the “DAPI staining / effect on nuclei and DNA” value [6] was “kills the cells and disrupts their nuclei and DNA such that DAPI staining yields no signal”. For the same substance, the “rescue by adenovirus-expressed AKT” value [7] was “unable to rescue” and the “cytotoxic activity against prostate cancer cells (summary)” value [8] was “strongly cytotoxic to prostate cancer cells, rapidly inducing apoptosis; also recorded: strongly cytotoxic to sGCα1-expressing prostate cancer cells, but not to sGCα1-deficient cells; also recorded: showed the strongest activity”.
